Values joined by “and” are separate entries in the source; they are usually repeats but may differ in a detail not shown here. Equal values may be shown once.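 All cell lines were grown in 96-well plates and treated with compound for 48 hours. Abbreviation: GI50, concentration required for 50% inhibition of growth. At the TGI there is no net growth.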
Assays:
Experiment in all cases: DTP human tumour cell line panel, 48 h
[1] = test system: SF-539 CNS
[2] = test system: DU-145 prostate
[3] = test system: COLO 205 colon
[4] = test system: SK-MEL-5 melanoma
[5] = test system: NCI-H522 lung
[6] = test system: MCF7 breast
[7] = test system: MALME-3M melanoma
[8] = test system: BT-549 breast
[9] = test system: A549 NSCLC
[10] = test system: SF-295 CNS

SMILES	GI50 [1]	TGI [1]	GI50 [2]	TGI [2] [µM]	GI50 [3]	TGI [3]	GI50 [4]	TGI [4]	GI50 [5]	TGI [5] [µM]	GI50 [6]	TGI [6]	GI50 [7]	TGI [7]	GI50 [8]	TGI [8]	GI50 [9]	TGI [9]	GI50 [10]	TGI [10]
CCOC(=O)c1[nH]c2cc(Cl)ccc2c1[C@@H](C(=O)NC(C)(C)C)N(CC)C(=O)CCCCC#Cc1cccc2c1CN(C1CCC(=O)NC1=O)C2=O (stereo not given in full)	1.74 µM	11.7 µM	3.06 µM	46.8	0.0308 µM	2.53 µM	1.22 µM	2.56 µM	1.8 µM	25.8	0.117 µM	> 100 µM	< 0.01 µM	0.456 µM	< 0.0197 µM	4.81 µM	1.3 µM	> 89.4 µM	1.14 µM	3.88 µM
CC1=CCC2CC1C(C(=O)c1c[nH]c3ccccc13)=NC2(C)C (stereo not given)	–	> 100 µM	–	> 100	–	> 100 µM	–	> 100 µM	–	> 100	–	> 100 µM	–	> 100 µM	–	> 100 µM	–	> 100 µM	–	–
COc1ccc(Nc2nc(NCCNc3ccnc4cc(Cl)ccc34)nc(N3CCOCC3)n2)cc1	2.18 µM	7.54 µM	9.8 µM	21.9	1.53 µM	3.33 µM	1.59 µM	3.04 µM	3.85 µM	11.5	2.86 µM	12.8 µM	1.94 µM	3.47 µM	9.92 µM	22.1 µM	4.87 µM	20.3 µM	2.05 µM	3.92 µM
O=S(=O)(N=C1C(Cl)=C(Cl)C(=NS(=O)(=O)c2ccccc2)C(Cl)=C1Cl)c1ccccc1	45.6 µM	> 100 µM	18.5 µM	60.9	23.9 µM	88.8 µM	13.9 µM	36.5 µM	11.1 µM	29.7	18 µM	> 100 µM	18.5 µM	56.4 µM	17.3 µM	37.5 µM	32.3 µM	> 100 µM	29.5 µM	93.8 µM
COc1ccc(-c2ncnc3c2ncn3CC#CCCl)cc1	6.48 µM	20.9 µM	4.74 µM	18.4	3.51 µM	13.7 µM	3.16 µM	12.4 µM	3.09 µM	14	2.48 µM	12.2 µM	2.58 µM	16 µM	2.98 µM	13.6 µM	7.39 µM	30.7 µM	2.35 µM	7.15 µM
CN(C)c1ccc(/C=N/NC(N)=S)nc1	1.81 µM	> 100 µM	2.45 µM	16.3	4.27 µM	> 100 µM	2.52 µM	> 100 µM	1.2 µM	> 100	1.64 µM	> 100 µM	7.91 µM	> 100 µM	4.39 µM	> 100 µM	4.61 µM	> 100 µM	2.91 µM	16.1 µM
Cc1cc2c(F)c(Oc3ncnc(Nc4ccc(N5C[C@@H](C)N[C@@H](C)C5)cc4)c3C#N)cc(F)c2[nH]1	1.53 µM	2.94 µM	3.31 µM	11.1	1.68 µM	3.58 µM	1.71 µM	3.13 µM	2.14 µM	4.54	1.7 µM	4.29 µM	1.61 µM	3.48 µM	0.816 µM	2.38 µM	2.84 µM	8.02 µM	1.95 µM	3.94 µM
CCCc1nn(C)c2c(=O)[nH]c(-c3cc(S(=O)(=O)N4CCN(C)CC4)ccc3OCC)nc12	> 100 µM	> 100 µM	> 100 µM	> 100	> 100 µM	> 100 µM	> 100 µM	> 100 µM	> 100 µM	> 100	> 100 µM	> 100 µM	> 100 µM	> 100 µM	> 100 µM	> 100 µM	> 100 µM	> 100 µM	> 100 µM	> 100 µM
Cc1c(CN2CCN(C(=O)[C@H](C)O)CC2)sc2c(N3CCOCC3)nc(-c3cnc(N)nc3)nc12	0.388 µM and 0.222 µM	2.27 µM and 0.875 µM	0.424 µM and 0.244 µM	> 100	0.224 µM and 0.233 µM	> 5.47 µM and 9.5 µM	0.397 µM and 0.174 µM	2.15 µM and 0.741 µM	0.22 µM and 0.156 µM	> 10	0.0428 µM and 0.0379 µM	> 100 µM	0.0506 µM	0.847 µM and 0.414 µM	0.146 µM and 0.065 µM	3.11 µM and 0.57 µM	0.439 µM and 0.207 µM	9.75 µM and 7.57 µM	0.131 µM and 0.0822 µM	1.72 µM and 0.529 µM
CC1=C(C#N)C23C(=O)N(c4ccccc4)C(=O)C2=C(O)C=CC3(O)N1Cc1ccc(Cl)cc1Cl (stereo not given)	2.11 µM	4.9 µM	2.7 µM	11.6	4.11 µM	14.4 µM	5.19 µM	17 µM	–	–	2.12 µM	13.3 µM	3.14 µM	9.95 µM	1.46 µM	3.17 µM	12.2 µM	28.5 µM	1.32 µM	5.64 µM
CC(C)(C)OC(=O)C1C(=O)NC(=O)CC1CC(OCc1ccccc1)C(OCc1ccccc1)C(COCc1ccccc1)OCc1ccccc1 (stereo not given)	> 100 µM and 36.6 µM	> 100 µM	–	> 100	–	–	22 µM and 10.6 µM	> 100 µM and 37.6 µM	–	–	27 µM and 7.19 µM	> 100 µM and 89.6 µM	25.4 µM and 11.4 µM	> 100 µM and 45.4 µM	–	79.5 µM and > 100 µM	26 µM and 5.23 µM	> 100 µM and 28.5 µM	–	> 100 µM
C(=N\Nc1ncc(-c2cc3cc4c(cc3o2)OCO4)s1)/c1ccco1	1.58 µM	3.96 µM	2.02 µM	5.49	–	–	2.07 µM	4.6 µM	0.625 µM	2.97	0.683 µM	7.18 µM	1.92 µM	6.18 µM	3.43 µM	15.2 µM	1.79 µM	6.87 µM	2.78 µM	11.5 µM
NC(=S)N/N=C/c1ccc(OC(=O)COc2cc(Cl)c(Cl)cc2Cl)cn1	2.37 µM	10.3 µM	3.52 µM	27.3	7.39 µM	> 100 µM	3.42 µM	59.6 µM	3.17 µM	67.5	2.09 µM	> 100 µM	4.96 µM	> 100 µM	3.92 µM	> 100 µM	24.4 µM	> 100 µM	–	–
Cc1ccc(OCC2CO2)c(Br)c1 (stereo not given)	–	29.9 µM	–	> 100	–	32.3 µM	–	60.5 µM	–	–	–	34.9 µM	–	> 100 µM	–	0.879 µM	–	62.2 µM	–	63.7 µM

From PubChem BioAssay (NCI)
